Experimental data from PMC11110727, “Exploiting thiol-functionalized benzosiloxaboroles for achieving diverse substitution patterns – synthesis, characterization and biological evaluation of promising antibacterial agents” (RSC Medicinal Chemistry, 2024).
Converted amounts (≈) assume the structure as drawn. Read-outs that look alike come from different tables or passages of the source.

Key:
B. cepacia ATCC 25416 = assay: Antibacterial activity: MIC/MBC, disc-diffusion; assay type: cell-based, Burkholderia cepacia; conditions: Burkholderia cepacia, ATCC25416
In short: (§1)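 Read-outs are disc-diffusion zones, broth-microdilution MICs and bactericidal concentrations (MBC), following EUCAST and CLSI guidance. The efflux contribution was probed by rerunning MICs with 20 μg mL^−1 PAβN in MgSO4-supplemented (1 mM) Mueller–Hinton II broth, a ≥4-fold decrease being significant.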

E. faecium ATCC 6057 = assay: Antibacterial activity: MIC/MBC determination and disc-diffusion; assay type: cell-based; conditions: Enterococcus faecium, ATCC6057
In short: (§2)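 Method: disc diffusion + MIC per EUCAST/CLSI; MBC/MFC per CLSI. Bacteria passaged twice on TSA, yeasts on Sabouraud agar, 24–48 h at 30 °C. Test compounds in DMSO.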

[1] = test system: S. aureus ATCC 43300 MRSA; assay: as above; assay type: cell-based; conditions: Staphylococcus aureus
In short: as §2

E. coli ATCC 25922 = assay: Antibacterial activity: MIC/MBC, MIC with PAβN, disc-diffusion; assay type: cell-based, Escherichia coli; conditions: for MIC: Escherichia coli, ATCC25922
In short: as §1

[2] = test system: B. bronchiseptica ATCC 4617; assay: Antibacterial activity: MIC/MBC, disc-diffusion; assay type: cell-based, Bordetella bronchiseptica; conditions: Bordetella bronchiseptica, ATCC4617
In short: as §1

[3] = test system: S. maltophilia ATCC 12714; assay: Antibacterial activity: MIC/MBC, MIC with PAβN, disc-diffusion; assay type: cell-based, Stenotrophomonas maltophilia; conditions: Stenotrophomonas maltophilia, ATCC12714
In short: as §1

[4] = test system: S. maltophilia ATCC 13637; assay: as above; assay type: cell-based, Stenotrophomonas maltophilia; conditions: Stenotrophomonas maltophilia, ATCC13637
In short: as §1

C. krusei ATCC 6258 = assay: Antifungal activity: MIC/MFC, disc-diffusion; assay type: cell-based; conditions: for diameter of inhibition zone: C. krusei ATCC 6258, (-) = zone not observed, paper discs 9 mm; for MIC: Pichia kudriavzevii, ATCC6258
In short: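 Compounds in DMSO were tested by disc diffusion and MIC determination following EUCAST/CLSI guidance, with fungicidal concentration (MFC) per CLSI. Strain first grown twice-checked on Sabouraud dextrose agar, 30 °C, 24–48 h.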

E. cloacae DSM 6234 = assay: Antibacterial activity: MIC/MBC, MIC with PAβN, disc-diffusion; assay type: cell-based, Enterobacter cloacae; conditions: Enterobacter cloacae, DSM6234
In short: as §1

S. cerevisiae ATCC 9763 = assay: Antifungal activity: MIC/MFC, disc-diffusion; assay type: cell-based, Saccharomyces cerevisiae; conditions: for diameter of inhibition zone: (-) = zone not observed, paper discs 9 mm
In short: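 EUCAST/CLSI MIC plus disc-diffusion; MBC, MFC by CLSI. Pre-culture: two passages, 30 °C, 24–48 h (TSA, Sabouraud). Controls fluconazole (fungi) and linezolid (Gram-positives); DMSO vehicle.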

[5] = B. cepacia ATCC 25416, read-out: MIC
[6] = E. faecium ATCC 6057, read-out: MIC
[7] = S. aureus ATCC 43300 MRSA, read-out: MBC (first MBC where Eagle effect)
[8] = S. aureus ATCC 43300 MRSA, read-out: MIC
[9] = E. coli ATCC 25922, read-out: MIC
[10] = B. bronchiseptica ATCC 4617, read-out: MIC
[11] = S. maltophilia ATCC 12714, read-out: MIC
[12] = S. maltophilia ATCC 13637, read-out: MIC
[13] = E. cloacae DSM 6234, read-out: MIC
[14] = Saccharomyces cerevisiae, ATCC9763, read-out: MIC

Row | Structure (SMILES) | MIC (B. cepacia ATCC 25416; [5]) [µg/mL] | MIC (E. faecium ATCC 6057; [6]) [µg/mL] | MBC [1, 7] [µg/mL] | MIC [1, 8] [µg/mL] | MIC (E. coli ATCC 25922; [9]) [µg/mL] | MIC [2, 10] [µg/mL] | MIC [3, 11] [µg/mL] | MIC [4, 12] [µg/mL] | diameter of inhibition zone (C. krusei ATCC 6258) [mm] | MIC (C. krusei ATCC 6258; read-out: MIC) [µg/mL] | MIC (E. cloacae DSM 6234; [13]) [µg/mL] | diameter of inhibition zone (S. cerevisiae ATCC 9763; S. cerevisiae ATCC 9763) [mm] | MIC (S. cerevisiae ATCC 9763; [14]) [µg/mL] | also measured
1 | CC(=O)CSc1ccc2c(c1F)[Si](C)(C)OB2O [Compound 22, 1-((7-Fluoro-3-hydroxy-1,1-dimethyl-1,3-dihydrobenzo[c][1,2,5]oxasilaborol-6-yl)thio)propan-2-one] | > 400 | 25 (≈ 88 µM) | 200 (≈ 704 µM) | 6.25 (≈ 22 µM) | > 400 | > 400 | > 400 | > 400 | 12 | 200 (≈ 704 µM) | > 400 | 17 | 400 (≈ 1410 µM) | –
2 | C[Si]1(C)OB(O)c2ccc(SCC(=O)c3ccccc3)c(F)c21 [Compound 23, 2-((7-Fluoro-3-hydroxy-1,1-dimethyl-1,3-dihydrobenzo[c][1,2,5]oxasilaborol-6-yl)thio)-1-phenylethan-1-one] | > 400 | 50 (≈ 144 µM) | 25 (≈ 72.2 µM) | 3.12 (≈ 9.01 µM) | > 400 | > 400 | > 400 | > 400 | 12 | 200 (≈ 578 µM) | > 400 | 24 | 25 (≈ 72.2 µM) | MBC ([1]; S. aureus ATCC 43300 MRSA, value after the slash, read-out: second MBC (Eagle effect)): 100 µg/mL (≈ 289 µM); MFC (S. cerevisiae ATCC 9763; Saccharomyces cerevisiae, ATCC9763, S. cerevisiae ATCC 9763): 200 µg/mL (≈ 578 µM)
3 | CCOP(=O)(OCC)Sc1c(F)cc2c(c1F)[Si](C)(C)OB2O [Compound 24, S-(5,7-Difluoro-3-hydroxy-1,1-dimethyl-1,3-dihydrobenzo[c][1,2,5]oxasilaborol-6-yl) O,O-diethyl phosphorothioate] | – | – | – | – | – | – | – | – | – | – | – | – | – | MIC (B. cepacia ATCC 25416): > 400 µg/mL; MIC (E. faecium ATCC 6057): 400 µg/mL (≈ 1050 µM); MIC [1]: 12.5 µg/mL (≈ 32.7 µM); MBC ([1]; read-out: MBC (first MBC where Eagle effect)): > 400 µg/mL; MIC (E. coli ATCC 25922): > 400 µg/mL; MIC [2]: > 400 µg/mL; MIC [3]: > 400 µg/mL; MIC [4]: > 400 µg/mL; MIC (C. krusei ATCC 6258): > 400 µg/mL; MIC (E. cloacae DSM 6234): > 400 µg/mL; MIC (S. cerevisiae ATCC 9763; Saccharomyces cerevisiae, ATCC9763): > 400 µg/mL
4 | C[Si]1(C)OB(O)c2ccc(SC(=O)c3ccc(C(F)(F)F)cc3)c(F)c21 [Compound 25, S-(7-Fluoro-3-hydroxy-1,1-dimethyl-1,3-dihydrobenzo[c][1,2,5]oxasilaborol-6-yl) 4-(trifluoromethyl)benzothioate] | > 50 | 12.5 (≈ 31.2 µM) | 25 (≈ 62.5 µM) | 12.5 (≈ 31.2 µM) | > 50 | > 50 | > 50 | > 50 | – | > 50 | > 50 | – | 25 (≈ 62.5 µM) | MBC (E. faecium ATCC 6057; E. faecium ATCC 6057): > 50 µg/mL
5 | C[Si]1(C)OB(O)c2cc(F)c(S(=O)(=O)Cl)c(F)c21 [Compound 26, 5,7-Difluoro-3-hydroxy-1,1-dimethyl-1,3-dihydrobenzo[c][1,2,5]oxasilaborole-6-sulfonyl chloride] | > 400 | 100 | – | 200 | > 400 | > 400 | > 400 | > 400 | – | > 400 | > 400 | – | > 400 | –
6 | C[Si]1(C)OB(O)c2cc(F)c(S(N)(=O)=O)c(F)c21 [Compound 27, 5,7-Difluoro-3-hydroxy-1,1-dimethyl-1,3-dihydrobenzo[c][1,2,5]oxasilaborole-6-sulfonamide] | > 400 | 400 (≈ 1360 µM) | – | > 400 | > 400 | > 400 | > 400 | > 400 | – | > 400 | > 400 | – | > 400 | -fold reduction of MIC in the presence of PAβN (E. coli ATCC 25922; E. coli ATCC 25922, PAβN 20 μg mL^−1, MHB + 1 mM MgSO4): 2 -fold
